# According to PMC3677594, “Characterization of a novel Entamoeba histolytica strain from Burkina Faso, Africa, possessing a unique hexokinase-2 gene” (Parasite, 2011):
# Numbering of substitutions follows the chain as printed.
# Tests used:
# Type in all cases: biochemical
# [1] = molecular target: T1, HXK-1 (Entamoeba dispar, UniProt O09487); test: in-gel mannokinase activity stain after IEF; details: ATP; coupled with MPI, GPI and G6PDH XV, or directly with G6PDH II
# T1 construct: gene hxk1; native full-length enzyme in freeze-thaw lysate, resolved by IEF or starch gel
# T1 sequence (O09487 entry or part of it): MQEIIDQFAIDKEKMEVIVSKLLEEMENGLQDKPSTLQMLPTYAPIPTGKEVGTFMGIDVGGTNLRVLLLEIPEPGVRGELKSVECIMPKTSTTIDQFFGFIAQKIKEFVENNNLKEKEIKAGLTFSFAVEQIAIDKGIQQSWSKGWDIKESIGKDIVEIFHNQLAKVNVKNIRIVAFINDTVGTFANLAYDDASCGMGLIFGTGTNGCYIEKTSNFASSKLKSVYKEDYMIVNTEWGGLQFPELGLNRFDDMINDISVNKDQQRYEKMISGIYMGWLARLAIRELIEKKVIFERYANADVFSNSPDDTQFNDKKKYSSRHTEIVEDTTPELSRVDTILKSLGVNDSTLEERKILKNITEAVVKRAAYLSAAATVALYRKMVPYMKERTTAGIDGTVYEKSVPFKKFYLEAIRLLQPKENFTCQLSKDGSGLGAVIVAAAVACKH
# [2] = molecular target: T2, HXK-2 (Entamoeba dispar, UniProt O09488); test: in-gel mannokinase activity stain after IEF; details: ATP; coupled with MPI, GPI and G6PDH XV, or directly with G6PDH II
# T2 construct: gene hxk2; native full-length enzyme in freeze-thaw lysate, resolved by IEF or starch gel
# T2 sequence (O09488 1-445): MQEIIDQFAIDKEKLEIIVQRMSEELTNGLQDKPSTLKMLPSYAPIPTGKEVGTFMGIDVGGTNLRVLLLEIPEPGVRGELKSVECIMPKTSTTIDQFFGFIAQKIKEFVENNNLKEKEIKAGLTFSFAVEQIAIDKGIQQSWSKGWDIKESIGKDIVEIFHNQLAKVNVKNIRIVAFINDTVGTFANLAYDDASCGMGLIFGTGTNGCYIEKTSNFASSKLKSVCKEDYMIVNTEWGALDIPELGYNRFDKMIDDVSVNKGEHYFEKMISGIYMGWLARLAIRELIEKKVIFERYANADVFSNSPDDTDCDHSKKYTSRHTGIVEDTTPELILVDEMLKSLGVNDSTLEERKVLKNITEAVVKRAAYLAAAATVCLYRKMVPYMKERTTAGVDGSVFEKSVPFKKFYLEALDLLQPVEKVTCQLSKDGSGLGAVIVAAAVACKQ
# [3] = molecular target: T3, HXK-1 (Entamoeba nuttalli, UniProt C5NNG5); test: in-gel mannokinase activity stain after IEF; details: ATP; coupled with MPI, GPI and G6PDH XV, or directly with G6PDH II
# T3 construct: native full-length enzyme in freeze-thaw lysate, resolved by IEF or starch gel
# T3 sequence (C5NNG5 1-445): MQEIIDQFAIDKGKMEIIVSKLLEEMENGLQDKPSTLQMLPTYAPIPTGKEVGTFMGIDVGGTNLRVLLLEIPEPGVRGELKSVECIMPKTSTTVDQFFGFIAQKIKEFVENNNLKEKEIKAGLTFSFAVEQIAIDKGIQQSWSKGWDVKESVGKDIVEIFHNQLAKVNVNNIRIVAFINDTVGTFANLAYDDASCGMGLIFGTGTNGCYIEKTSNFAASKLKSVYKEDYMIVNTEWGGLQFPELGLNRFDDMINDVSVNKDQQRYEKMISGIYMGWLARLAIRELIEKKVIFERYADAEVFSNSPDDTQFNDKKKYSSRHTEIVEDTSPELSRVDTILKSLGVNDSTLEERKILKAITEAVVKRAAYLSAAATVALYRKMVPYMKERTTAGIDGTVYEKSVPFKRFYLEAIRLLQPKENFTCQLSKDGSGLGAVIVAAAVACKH
# [4] = molecular target: T4, HXK-2 (Entamoeba nuttalli, UniProt C5NNG6); test: in-gel mannokinase activity stain after IEF; details: ATP; coupled with MPI, GPI and G6PDH XV, or directly with G6PDH II
# T4 construct: gene ENUP19_0206G0024; native full-length enzyme in freeze-thaw lysate, resolved by IEF or starch gel
# T4 sequence (C5NNG6 1-445): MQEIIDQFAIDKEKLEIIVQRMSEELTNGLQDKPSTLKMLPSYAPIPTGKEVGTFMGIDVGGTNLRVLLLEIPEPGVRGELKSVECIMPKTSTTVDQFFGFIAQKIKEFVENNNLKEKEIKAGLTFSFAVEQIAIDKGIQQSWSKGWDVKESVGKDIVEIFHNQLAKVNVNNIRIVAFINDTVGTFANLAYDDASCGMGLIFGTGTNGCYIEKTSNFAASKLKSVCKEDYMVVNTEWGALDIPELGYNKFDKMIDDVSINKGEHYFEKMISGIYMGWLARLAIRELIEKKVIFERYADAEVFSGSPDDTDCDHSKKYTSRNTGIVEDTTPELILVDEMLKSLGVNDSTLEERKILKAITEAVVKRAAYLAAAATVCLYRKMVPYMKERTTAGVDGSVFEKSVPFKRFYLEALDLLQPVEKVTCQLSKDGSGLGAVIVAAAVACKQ
# [5] = molecular target: T5, HXK-1 (Entamoeba histolytica, UniProt A0A8U0WP42); test: in-gel mannokinase activity stain after IEF; details: ATP; coupled with MPI, GPI and G6PDH XV, or directly with G6PDH II
# T5 construct: gene EHI_098290; native full-length enzyme in freeze-thaw amoeba lysate, resolved by IEF or starch gel
# T5 sequence (A0A8U0WP42 1-445): T3 sequence (C5NNG5 1-445) with G13E, V153I, V168I
# [6] = molecular target: T6, HXK-2 (Entamoeba histolytica, UniProt A0A8U0WP47); test: in-gel mannokinase activity stain after IEF; details: ATP; coupled with MPI, GPI and G6PDH XV, or directly with G6PDH II
# T6 construct: gene EHI_098560; native full-length enzyme in freeze-thaw lysate, resolved by IEF or starch gel
# T6 sequence (A0A8U0WP47 1-445): T4 sequence (C5NNG6 1-445) with V153I, V168I, V232I, I354M
# [7] = molecular target: T1, HXK-1; test: in-gel glucokinase activity stain after IEF or starch gel; details: ATP; G6PDH-coupled, NADPH-formazan read-out
# [8] = molecular target: T2, HXK-2; test: as above; details: ATP; G6PDH-coupled, NADPH-formazan read-out
# [9] = molecular target: T5, HXK-1; test: as above; details: ATP; G6PDH-coupled, NADPH-formazan read-out
# [10] = molecular target: T3, HXK-1; test: as above; details: ATP; G6PDH-coupled, NADPH-formazan read-out
# [11] = molecular target: T4, HXK-2; test: as above; details: ATP; G6PDH-coupled, NADPH-formazan read-out
# [12] = molecular target: T6, HXK-2; test: as above; details: ATP; G6PDH-coupled, NADPH-formazan read-out
Structure (SMILES),in-gel mannokinase activity stain after IEF [1],in-gel mannokinase activity stain after IEF [2],in-gel mannokinase activity stain after IEF [3],in-gel mannokinase activity stain after IEF [4],in-gel mannokinase activity stain after IEF [5],in-gel mannokinase activity stain after IEF [6],in-gel glucokinase activity stain after IEF or starch gel [7],in-gel glucokinase activity stain after IEF or starch gel [8],in-gel glucokinase activity stain after IEF or starch gel [9],in-gel glucokinase activity stain after IEF or starch gel [10],in-gel glucokinase activity stain after IEF or starch gel [11],in-gel glucokinase activity stain after IEF or starch gel [12]
OC[C@H]1OC(O)[C@@H](O)[C@@H](O)[C@@H]1O (stereo partly drawn) [mannose],no differences in mannokinase activity were observed between the isoenzymes HXK-1 and HXK-2,no differences in mannokinase activity were observed between the isoenzymes HXK-1 and HXK-2,no differences in mannokinase activity were observed between the isoenzymes HXK-1 and HXK-2,no differences in mannokinase activity were observed between the isoenzymes HXK-1 and HXK-2,no differences in mannokinase activity were observed between the isoenzymes HXK-1 and HXK-2,no differences in mannokinase activity were observed between the isoenzymes HXK-1 and HXK-2,–,–,–,–,–,–
OC[C@H]1OC(O)[C@H](O)[C@@H](O)[C@@H]1O (stereo partly drawn) [glucose],–,–,–,–,–,–,substrate specificity of the HXKs of the six strains of Entamoeba spp. to phosphorylated glucose,substrate specificity of the HXKs of the six strains of Entamoeba spp. to phosphorylated glucose,substrate specificity of the HXKs of the six strains of Entamoeba spp. to phosphorylated glucose,substrate specificity of the HXKs of the six strains of Entamoeba spp. to phosphorylated glucose,substrate specificity of the HXKs of the six strains of Entamoeba spp. to phosphorylated glucose,substrate specificity of the HXKs of the six strains of Entamoeba spp. to phosphorylated glucose
